From PMC9068900, “Pharmacology of Kappa Opioid Receptors: Novel Assays and Ligands” (Frontiers in Pharmacology, 2022)
Marks after values point to notes of the source that are not given here.

Legend:
[1] = target: T1, human kappa opioid receptor (Homo sapiens, UniProt P41145); test: BRET kappa-β-arrestin 2 interaction, SH-SY5Y whole cells; format: cell-based; design: 13-mer linker peptide […]; expressed in transfected cells; enriched plasma membranes used
[2] = target: T1, human kappa opioid receptor; test: Summary over the assays used (calcium mobilization, DMR, BRET); format: cell-based; design: expressed in transfected cells
[3] = target: T1, human kappa opioid receptor; test: Calcium mobilization in CHO cells co-expressing the kappa receptor and Gαqi5; format: cell-based; design: expressed in transfected cells
[4] = system: human kappa opioid receptor; test: Bias factor, G protein vs β-arrestin 2, from BRET data
Protocol: To quantify the differences in agonist efficacies for G protein and arrestin interactions, bias factors were calculated by choosing the endogenous kappa opioid ligand Dyn A as standard unbiased ligand. For this analysis, the Emax and EC50 of the agonist were derived using a 3-parameter logistic model with slope values equal to unity. […] Under such conditions, the relative ratio (Emax/EC50)lig/(Emax/EC50)Dyn A is equivalent to the relative (τ/K)lig/(τ/K)Dyn A ratio as defined by the operational model ([Black and Leff, 1983]; [Griffin et al., 2007]). Taking ratios of these values between G protein and arrestin can cancel the common K and yield the ratio of ligand intrinsic efficacy across the two transduction proteins. Thus, the following formula was used for calculating agonist bias factors in log10 units: bias factor= log[(Emax/EC50)lig/(Emax/EC50)Dyn A]G prot.−log[(Emax/EC50)lig/(Emax/EC50)Dyn A]β−arr.
The pharmacological terminology and computations related to biased agonism were consistent with IUPHAR recommendations ([Kolb et al., 2022]).

[5] = target: T1, human kappa opioid receptor; test: Dynamic mass redistribution (DMR) label-free assay in CHO cells; format: cell-based; design: expressed in transfected cells
Protocol: DMR experiments were conducted as previously described ([Malfacini et al., 2018]). Chinese Hamster Ovary (CHO) cells stably expressing the human kappa receptor were kindly provided by L Toll (Torrey Pines Institute for Molecular Studies, Port St. Lucie, United States). Cells were cultured in Dulbecco’s Modified Eagle Medium: Nutrient Mixture F-12 (DMEM/F12) supplemented with 10% (v/v) Fetal Calf Serum (FCS), 100 U/ml penicillin, 100 μg/ml streptomycin, 2 mM L-glutamine, 15 mM HEPES. The medium was supplemented with 400 μg/ml G418 to maintain expression. Cells were seeded at a density of 45,000 cells/well in 120 μL into fibronectin-coated EnspireTM-LC 96-wells plates and cultured for 20 h to form a confluent monolayer. On the day of the experiment, cells were washed twice and maintained with assay buffer: HBSS with 20 mM HEPES, 0.01% BSA fraction V; for 90 min before the experiment. DMR was monitored in real-time with a temporal resolution of 44 s throughout the assay. Experiments were performed at 37°C, using an EnSight Multimode Plate Reader (PerkinElmer). A 5 min baseline was first established, followed by adding compounds manually in a volume of 40 μL and recording compound-triggered DMR signal for 60 min. In antagonism experiments, ligands tested as antagonists were added 30 min before agonist administration. Maximum picometers (pm) modification (peak) were used to determine agonist response after baseline normalization.
The pharmacological terminology is consistent with the International Union of Basic and Clinical Pharmacology (IUPHAR) recommendations ([Neubig et al., 2003]). Concentration-response curves to agonists were fitted to the four-parameter logistic nonlinear regression model as follows: Effect=Basal+ Emax−Basal/1+10^ (LogEC50−Log[ligand]) × HillSlope
If unsurmountable antagonist behavior was detected, the pKB value was derived as follows: a double-reciprocal plot of equi-effective concentrations of agonist (A) in the absence (1/A) and presence (1/A’) of the antagonist (B) was constructed and pKB was derived from the equation pKB = log {(slope-1)/[B]} ([Kenakin, 2009]).

[6] = target: T1, human kappa opioid receptor; test: biochemical; format: biochemical; design: 13-mer linker peptide […]; expressed in transfected cells; enriched plasma membranes used
human mu opioid receptor = target: T2, human mu opioid receptor (Homo sapiens, UniProt P35372); test: Calcium mobilization in CHO cells co-expressing the mu receptor and Gαqi5; format: cell-based
T2 construct: expressed in transfected cells
T2 sequence (P35372 whole entry): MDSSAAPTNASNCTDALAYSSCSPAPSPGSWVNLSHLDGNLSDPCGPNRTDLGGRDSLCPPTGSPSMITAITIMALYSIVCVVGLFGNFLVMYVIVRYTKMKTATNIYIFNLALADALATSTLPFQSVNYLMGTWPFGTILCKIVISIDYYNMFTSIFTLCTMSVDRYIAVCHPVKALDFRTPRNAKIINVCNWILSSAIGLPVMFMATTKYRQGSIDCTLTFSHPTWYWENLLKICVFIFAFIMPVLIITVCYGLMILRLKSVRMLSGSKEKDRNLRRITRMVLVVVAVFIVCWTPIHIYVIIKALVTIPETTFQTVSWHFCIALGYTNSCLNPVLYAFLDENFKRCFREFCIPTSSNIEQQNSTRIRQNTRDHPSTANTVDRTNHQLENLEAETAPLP

[7] = target: T3, human delta opioid receptor (Homo sapiens, UniProt P41143); test: Calcium mobilization in CHO cells co-expressing the delta receptor and GαqG66Di5; format: cell-based
T3 construct: expressed in transfected cells
T3 sequence (P41143 whole entry): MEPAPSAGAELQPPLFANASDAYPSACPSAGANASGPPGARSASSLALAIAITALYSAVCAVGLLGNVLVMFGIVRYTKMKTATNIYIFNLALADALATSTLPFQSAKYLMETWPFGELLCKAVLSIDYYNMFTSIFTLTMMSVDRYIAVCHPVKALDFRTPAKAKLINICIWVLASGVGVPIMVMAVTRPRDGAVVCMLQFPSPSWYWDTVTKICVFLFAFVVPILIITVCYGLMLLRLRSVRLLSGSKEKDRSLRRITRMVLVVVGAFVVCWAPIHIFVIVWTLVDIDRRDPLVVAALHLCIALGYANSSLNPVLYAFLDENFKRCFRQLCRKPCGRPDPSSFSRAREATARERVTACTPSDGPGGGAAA

kappa opioid receptor = system: kappa opioid receptor; design: method as in Arimitsu et al., 1977; settings: ref Arimitsu et al., 1977, cited from earlier work
mice [8] = system: mice; design: method as in Gairin et al., 1988a; settings: intracerebroventricular, ref Gairin et al., 1988a; cited from earlier work
mice [9] = system: mice; design: method as in Gairin et al., 1988a; settings: intracerebroventricular, ref Gairin et al., 1988a; cited from earlier work; remark: listed apart in the source

T1 sequence (P41145 whole entry): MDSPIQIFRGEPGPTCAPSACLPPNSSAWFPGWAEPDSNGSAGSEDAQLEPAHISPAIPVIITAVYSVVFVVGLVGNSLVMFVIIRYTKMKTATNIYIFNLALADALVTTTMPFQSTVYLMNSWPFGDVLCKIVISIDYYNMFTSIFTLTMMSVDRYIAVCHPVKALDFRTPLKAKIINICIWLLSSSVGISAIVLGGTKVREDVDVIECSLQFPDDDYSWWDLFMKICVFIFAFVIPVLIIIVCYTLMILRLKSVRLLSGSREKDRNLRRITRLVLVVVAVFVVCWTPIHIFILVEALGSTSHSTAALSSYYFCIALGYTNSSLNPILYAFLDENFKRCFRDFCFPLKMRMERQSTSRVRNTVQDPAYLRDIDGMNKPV

Molecule: CC[C@H](C)[C@H](NC(=O)[C@H](CCCNC(=N)N)NC(=O)[C@H](CCCNC(=N)N)NC(=O)[C@H](CC(C)C)NC(=O)[C@H](Cc1ccccc1)NC(=O)CNC(=O)CNC(=O)[C@@H](N)Cc1ccc(O)cc1)C(=O)N[C@@H](CCCNC(=N)N)C(=O)N1CCC[C@H]1C(=O)N[C@@H](CCCCN)C(=O)N[C@@H](CC(C)C)C(=O)N[C@@H](CCCCN)C(=O)N[C@@H](Cc1c[nH]c2ccccc12)C(=O)N[C@@H](CC(=O)O)C(=O)N[C@@H](CC(N)=O)C(=O)N[C@@H](CCC(N)=O)C(=O)N[C@@H](CSC1CC(=O)N(CCCC(=O)N2CCCN(C(=O)CCCN3C(=O)CC(SC[C@H](NC(=O)[C@H](CCC(N)=O)NC(=O)[C@H](CC(N)=O)NC(=O)[C@H](CC(=O)O)NC(=O)[C@H](Cc4c[nH]c5ccccc45)NC(=O)[C@H](CCCCN)NC(=O)[C@H](CC(C)C)NC(=O)[C@H](CCCCN)NC(=O)[C@@H]4CCCN4C(=O)[C@H](CCCNC(=N)N)NC(=O)[C@@H](NC(=O)[C@H](CCCNC(=N)N)NC(=O)[C@H](CCCNC(=N)N)NC(=O)[C@H](CC(C)C)NC(=O)[C@H](Cc4ccccc4)NC(=O)CNC(=O)CNC(=O)[C@@H](N)Cc4ccc(O)cc4)[C@@H](C)CC)C(N)=O)C3=O)CCN(C(=O)CCCN3C(=O)CC(SC[C@H](NC(=O)[C@H](CCC(N)=O)NC(=O)[C@H](CC(N)=O)NC(=O)[C@H](CC(=O)O)NC(=O)[C@H](Cc4c[nH]c5ccccc45)NC(=O)[C@H](CCCCN)NC(=O)[C@H](CC(C)C)NC(=O)[C@H](CCCCN)NC(=O)[C@@H]4CCCN4C(=O)[C@H](CCCNC(=N)N)NC(=O)[C@@H](NC(=O)[C@H](CCCNC(=N)N)NC(=O)[C@H](CCCNC(=N)N)NC(=O)[C@H](CC(C)C)NC(=O)[C@H](Cc4ccccc4)NC(=O)CNC(=O)CNC(=O)[C@@H](N)Cc4ccc(O)cc4)[C@@H](C)CC)C(N)=O)C3=O)CCCN(C(=O)CCCN3C(=O)CC(SC[C@H](NC(=O)[C@H](CCC(N)=O)NC(=O)[C@H](CC(N)=O)NC(=O)[C@H](CC(=O)O)NC(=O)[C@H](Cc4c[nH]c5ccccc45)NC(=O)[C@H](CCCCN)NC(=O)[C@H](CC(C)C)NC(=O)[C@H](CCCCN)NC(=O)[C@@H]4CCCN4C(=O)[C@H](CCCNC(=N)N)NC(=O)[C@@H](NC(=O)[C@H](CCCNC(=N)N)NC(=O)[C@H](CCCNC(=N)N)NC(=O)[C@H](CC(C)C)NC(=O)[C@H](Cc4ccccc4)NC(=O)CNC(=O)CNC(=O)[C@@H](N)Cc4ccc(O)cc4)[C@@H](C)CC)C(N)=O)C3=O)CC2)C1=O)C(N)=O (some centres unmarked) [PWT2-Dyn A]
- BRET β-Arrestin 2 α [1]: ∼1.00
- EC50 [1]: 219 nM
- Lower potency than Dyn A [1]: 3 fold
- Lower potency than dynorphin A [2]: 3–10 fold
- Calcium Mobilization α (intrinsic activity: maximal effect divided by that of Dyn A) [3]: ∼1.00
- EC50 [3]: 30.9 nM
- Bias factor (CL95%) [4]: ∼0.18 ^c
- DMR α [5]: 0.84
- Lower potency than Dyn A [5]: 4 fold
- BRET G Protein α [6]: ∼1.00
- Lower potency than Dyn A [6]: 3 fold
- EC50 ([6]; BRET G Protein pEC50 (CL95%)): 18.6 nM
- Agonist activity (in words) (human mu opioid receptor; CHO cells, mu + Gαqi5): inactive
- Stimulatory effect ([7]; only at the highest concentration tested): 77 % over the baseline

Molecule: C[C@@H](NC(=O)[C@@H](N)Cc1ccc(O)cc1)C(=O)N[C@@H](Cc1ccccc1)C(=O)NCC(=O)N[C@@H](Cc1ccc(O)cc1)C(=O)N1CCC[C@H]1C(=O)N[C@@H](CO)C(N)=O [Dermorphin]
- Maximal effects (human mu opioid receptor; CHO cells, mu + Gαqi5): 294 % over the baseline

Molecule: Nc1nc2c(ncn2[C@@H]2O[C@H](COP(=O)(O)OP(=O)(O)O)[C@@H](O)[C@H]2O)c(=O)[nH]1 [GDP, guanosine diphosphate]
- pEC50 (CL95%) ([6]; 5 min after compound addition): 8.20
- pEC50 (CL95%) ([6]; 30 min after compound addition): 8.21

Molecule: CC[C@H](C)[C@H](NC(=O)[C@H](CCCNC(=N)N)NC(=O)[C@H](CCCNC(=N)N)NC(=O)[C@H](CC(C)C)NC(=O)[C@H](Cc1ccccc1)NC(=O)CNC(=O)CNC(=O)[C@@H](N)Cc1ccc(O)cc1)C(=O)N[C@@H](CCCNC(=N)N)C(=O)N1CCC[C@H]1C(=O)N[C@@H](CCCCN)C(=O)N[C@@H](CC(C)C)C(=O)N[C@@H](CCCCN)C(=O)N[C@@H](Cc1c[nH]c2ccccc12)C(=O)N[C@@H](CC(=O)O)C(=O)N[C@@H](CC(N)=O)C(=O)N[C@@H](CCC(N)=O)C(=O)O [Dyn A, dynorphin A]
- Bias factor (CL95%) [4]: 0.00
- Maximal effects ([7]; CHO cells, delta + GαqG66Di5): 171 % over the baseline

Molecule: CCCCCCCCCCCCCCCC(=O)NCCCN1C(=O)CC(SC[C@H](NC(=O)[C@H](CCC(N)=O)NC(=O)[C@H](CC(N)=O)NC(=O)[C@H](CC(=O)O)NC(=O)[C@H](Cc2c[nH]c3ccccc23)NC(=O)[C@H](CCCCN)NC(=O)[C@H](CC(C)C)NC(=O)[C@H](CCCCN)NC(=O)[C@@H]2CCCN2C(=O)[C@H](CCCNC(=N)N)NC(=O)[C@@H](NC(=O)[C@H](CCCNC(=N)N)NC(=O)[C@H](CCCNC(=N)N)NC(=O)[C@H](CC(C)C)NC(=O)[C@H](Cc2ccccc2)NC(=O)CNC(=O)CNC(=O)[C@@H](N)Cc2ccc(O)cc2)[C@@H](C)CC)C(N)=O)C1=O (some centres unmarked) [Dyn A-palmitic]
- Lower potency than dermorphin (human mu opioid receptor; calcium mobilization, mu): approximately 6 fold
- Less potent than DPDPE ([7]; calcium mobilization, delta): 10 fold

Molecule: [D-Pro^10]Dyn(1-11)
- Higher affinity to the kappa opioid receptor than Dyn A (kappa opioid receptor; [^3H]Bremazocine binding): 7 fold
- Selectivity over the delta opioid receptor (kappa opioid receptor): 233 fold
- Selectivity over the mu opioid receptor (kappa opioid receptor): 62 fold
- Effect in acetic acid-induced writhing (mice [8]): dose-dependent antinociceptive effect
- Activity against thermal stimulus (tail-flick) (mice [9]): did not show any activity

Molecule: CC[C@H](C)[C@H](NC(=O)[C@H](CCCNC(=N)N)NC(=O)[C@H](CCCNC(=N)N)NC(=O)[C@H](CC(C)C)NC(=O)[C@H](Cc1ccccc1)NC(=O)CNC(=O)CNC(=O)[C@@H](N)Cc1ccc(O)cc1)C(=O)N[C@@H](CCCNC(=N)N)C(=O)N1CCC[C@@H]1C(=O)N[C@@H](CCCCN)C(N)=O [[D-Pro^10], [D-Pro^10]Dyn(1-11)-NH2]
- BRET β-Arrestin 2 pEC50 (CL95%) [1]: 8.07 (7.66–8.47)
- BRET β-Arrestin 2 α [1]: 0.95
- Calcium Mobilization pEC50 (CL95%) [3]: 9.08 (8.93–9.23)
- Calcium Mobilization α (intrinsic activity: maximal effect divided by that of Dyn A) [3]: 1.00
- DMR Emax [5]: 251 pm
- DMR pEC50 (CL95%) [5]: 9.84 (9.31–10.37)
- DMR α [5]: 1.07
- BRET G Protein pEC50 (CL95%) [6]: 8.36 (6.54–10.19)
- BRET G Protein α [6]: 1.00
